Results on 24 compounds are retold here after article PMC7489219 (Molecular Brain, 2020).

Structures can show the parent of a compound that is named as a salt.

The subject of the assay is T1, primary mouse cortical neurons.
T1 construct: primary cortical neurons, DIV 10
Description: cells. More on the design: Protection from NMDA-induced (30 uM, 10 min) neuronal death; Hoechst nuclear morphology by automated microscopy. To be noted: Cortical neurone, 20 h, read-out: % inhibition, inhibition of NMDA-induced cell death (protection score), 30 min pre-treatment. In short, it runs like this: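 On DIV 10, primary mouse cortical neurons were given compound at 10 μM for 30 min at 37 °C, then 30 μM NMDA for 10 min, washed, and kept 20 h with compound. Dead cells were scored by nuclear morphology, and % protection was derived from survival relative to vehicle + NMDA and untreated controls.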

Turning to `COc1ccc(-c2cc(=O)c3c(OC)c(OC)c(OC)c(OC)c3o2)cc1` [Tangeretin (Tangeritin)], the inhibition (as a rule, the drop in the measured response relative to a control, in per cent) at 10 µM was -0.746%.

Take `CCN(CC)CCOc1ccc(C(=C(Cl)c2ccccc2)c2ccccc2)cc1` [Clomifene citrate (Serophene)]: the inhibition at 10 µM is -1.18%.

For `O=c1c(-c2ccc(O)cc2)coc2c([C@@H]3O[C@H](CO)[C@@H](O)[C@H](O)[C@H]3O)c(O)ccc12` [Puerarin (Kakonein)], the inhibition at 10 µM is -3.03%.

In the case of `OC[C@H]1O[C@@H](Oc2ccc(O)cc2)[C@H](O)[C@@H](O)[C@@H]1O` [Arbutin (Uva, p-Arbutin)], the inhibition at 10 µM is -0.469%.

As to `O=C(O)CSCC(=O)NC1CCSC1=O` (stereo not drawn) [Erdosteine], the inhibition at 10 µM was -0.838%.

As for `CO[C@H]1/C=C/O[C@@]2(C)Oc3c(C)c(O)c4c(O)c(c(/C=N/N5CCN(C6CCCC6)CC5)c(O)c4c3C2=O)NC(=O)/C(C)=C\C=C\[C@H](C)[C@H](O)[C@@H](C)[C@@H](O)[C@@H](C)[C@H](OC(C)=O)[C@@H]1C` [Rifapentine (Priftin)], the inhibition at 10 µM was 9.26%.

For the compound `CN(C)c1ccc(C(=C2C=CC(=[N+](C)C)C=C2)c2ccc(N(C)C)cc2)cc1` [Crystal violet], the inhibition at 10 µM is -3.37%.

In the case of `CCCCC(=O)O[C@]1(C(=O)CO)[C@@H](C)C[C@H]2[C@@H]3CCC4=CC(=O)C=C[C@]4(C)[C@@]3(F)[C@@H](O)C[C@@]21C` [Betamethasone valerate (Betnovate)], the inhibition at 10 µM stood at 6.58%.

`N#Cc1ccc(C(c2ccc(C#N)cc2)n2cncn2)cc1` [Letrozole]: the inhibition at 10 µM stood at 0.34%.

Take `Nc1ccn([C@@H]2CS[C@H](CO)O2)c(=O)n1` [Lamivudine (Epivir)]: the inhibition at 10 µM is 0.555%.

Take `CC[C@@]1(O)C(=O)OCc2c1cc1n(c2=O)Cc2cc3c(CN(C)C)c(O)ccc3nc2-1` [Topotecan HCl]: the inhibition at 10 µM is -1.54%.

In the case of `O=c1c(-c2ccc(O)cc2)coc2cc(O)ccc12` [Daidzein], the inhibition at 10 µM is -2.08%.

Take `CS(=O)(=O)CCNCc1ccc(-c2ccc3ncnc(Nc4ccc(OCc5cccc(F)c5)c(Cl)c4)c3c2)o1` [Lapatinib Ditosylate (Tykerb)]: the inhibition at 10 µM worked out at 4.76%.

`CC(C)(C)C(=O)OCOP(=O)(COCCn1cnc2c(N)ncnc21)OCOC(=O)C(C)(C)C` [Adefovir Dipivoxil (Preveon, Hepsera)]: the inhibition at 10 µM stood at 18.8%.

As for `Cc1cc2c(s1)Nc1ccccc1N=C2N1CCN(C)CC1` [Olanzapine (Zyprexa)], the inhibition at 10 µM was 12.7%.

In the case of `NC(=O)CC[C@H](N)C(=O)O` [L-Glutamine], the inhibition at 10 µM is -2.01%.

For `CCCc1nc(C)c2c(=O)nc(-c3cc(S(=O)(=O)N4CCN(CC)CC4)ccc3OCC)[nH]n12` [Vardenafil (Vivanza)], the inhibition at 10 µM was -5.64%.

As for `CNC[C@@H](O)c1ccc(O)c(O)c1` [L-Adrenaline (Epinephrine)], the inhibition at 10 µM worked out at 0.37%.

Regarding `CN(C)C(=O)C(CCN1CCC(O)(c2ccc(Cl)cc2)CC1)(c1ccccc1)c1ccccc1` [Loperamide hydrochloride], the inhibition at 10 µM is -2.48%.

Take `C[C@H]1[C@H](OC(=O)CCC(=O)O)O[C@@H]2O[C@@]3(C)CC[C@H]4[C@H](C)CC[C@@H]1[C@@]24OO3` [Artesunate]: the inhibition at 10 µM was -3.35%.

As for `CCOC(=O)[C@H](CCc1ccccc1)N[C@@H](C)C(=O)N1[C@H](C(=O)O)C[C@@H]2CCC[C@@H]21` [Ramipril (Altace)], the inhibition at 10 µM was -0.755%.

For `C[N+](C)(C)CC(O)CC(=O)[O-]` (racemic) [DL-Carnitine hydrochloride], the inhibition at 10 µM was 2.11%.

`COc1ccc(-c2cc(=O)c3c(OC)c(OC)c(OC)c(OC)c3o2)cc1OC` [Nobiletin (Hexamethoxyflavone)]: the inhibition at 10 µM was -0.471%.

Regarding `O=C(O[C@@H]1Cc2c(O)cc(O)cc2O[C@@H]1c1cc(O)c(O)c(O)c1)c1cc(O)c(O)c(O)c1` [(-)-Epigallocatechin gallate], the inhibition at 10 µM came to 4.13%.
